Experimental data taken from ChEMBL document CHEMBL1201862, “PubChem BioAssay data set” (2004).
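Step 1: Grow cells in 96-well plates. Step 2: Expose to compound for 48 hours at 5 concentrations. Step 3: Interpolate endpoints linearly; if unreached, use highest concentration. GI50 marks 50% less growth.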 Calls of active or inactive are those of the source. Cut-off read from the data, not from the text of the source: active = GI50 up to about 1.1 µM and inactive = higher.

Experiments:
Test in all cases: growth of human tumour cells (NCI), 48 h
[1] = test system: UO-31
[2] = test system: NCI-H460
[3] = test system: NCI-H226
[4] = test system: NCI-H23
[5] = test system: XF498
[6] = test system: NCI-H522
[7] = test system: UACC-62
[8] = test system: K562
[9] = test system: SN12C
[10] = test system: EKVX
[11] = test system: HT-29
[12] = test system: OVCAR-3
[13] = test system: A549
[14] = test system: IGROV-1
[15] = test system: A498
[16] = test system: TK-10
[17] = test system: HOP-62
[18] = test system: MCF7
[19] = test system: DU-145
[20] = test system: PC-3

Measured: GI50

O=C(Nc1ccc(Cl)cc1)C1C(=O)C(=O)N(c2ccc(Cl)cc2)C1=O (configuration not stated)
inactive: [1] 79.6 µM | [2] > 100 µM | [3] > 100 µM | [4] > 100 µM | [5] > 100 µM | [6] > 100 µM | [7] > 100 µM | [8] 41.1 µM | [9] 81.1 µM | [10] > 100 µM | [11] 74.8 µM | [12] > 100 µM | [13] > 100 µM | [14] > 100 µM | [15] 60.7 µM | [16] > 100 µM

Nc1ccc(CCN2CCN(c3cccc(C(F)(F)F)c3)CC2)cc1
inactive: [1] 5.74 µM | [2] > 100 µM | [3] 91.4 µM | [4] > 100 µM | [5] > 100 µM | [6] 14.3 µM | [7] > 100 µM | [8] 70.1 µM | [9] > 100 µM | [10] 55.5 µM | [11] 70 µM | [12] 91.4 µM | [13] > 100 µM | [14] > 100 µM | [15] 80.9 µM | [16] > 100 µM | [17] > 100 µM

O=C(N/C(=C\c1ccc([N+](=O)[O-])cc1)c1nc2ccccc2s1)c1ccccc1
inactive: [1] 24.3 µM | [4] 19.7 µM | [5] 44.8 µM | [6] > 10 µM | [7] 20.4 µM | [8] 17.7 µM | [9] 20.9 µM | [11] 31.6 µM | [12] 29.3 µM | [13] 30.7 µM | [14] 23 µM | [15] 31.3 µM | [16] 22.6 µM | [17] 35.6 µM

C/C=C1\CCC2c3[nH]c4ccccc4c3CCN2C1 (configuration not stated)
inactive: [1] 38.6 µM | [2] > 100 µM | [3] 31 µM | [4] 77.4 µM | [5] 17.1 µM | [6] 83.8 µM | [7] > 100 µM | [8] 43.6 µM | [9] > 100 µM | [10] > 100 µM | [11] 40 µM | [12] 35.8 µM | [13] > 100 µM | [14] > 100 µM | [15] > 100 µM | [16] > 100 µM | [17] > 100 µM

O=C(O)C1CC2CC(=O)C1C2 (configuration not stated)
inactive: [1] > 100 µM | [2] > 100 µM | [3] > 100 µM | [4] > 100 µM | [5] > 100 µM | [6] > 100 µM | [7] > 100 µM | [8] > 100 µM | [9] > 100 µM | [10] > 100 µM | [11] > 100 µM | [12] > 100 µM | [13] > 100 µM | [14] > 100 µM | [15] > 100 µM | [16] > 100 µM | [17] > 100 µM

NN/C(Cc1ccccc1)=N/NC(N)=S
inactive: [1] > 100 µM | [2] > 100 µM | [3] > 100 µM | [4] > 10 µM | [5] > 100 µM | [6] 14.6 µM | [7] > 100 µM | [8] > 100 µM | [10] 97.3 µM | [11] > 100 µM | [13] > 100 µM | [14] > 100 µM | [15] > 100 µM | [16] > 100 µM | [17] > 100 µM

Cc1nn(-c2ccccc2)c(S)c1C(=O)c1ccccc1
inactive: [1] 36 µM | [4] 43.5 µM | [5] 35.2 µM | [6] 36.6 µM | [7] 47.1 µM | [8] 39.8 µM | [9] 21.2 µM | [10] 18.6 µM | [11] 10 µM | [13] 32.2 µM | [14] 51.2 µM | [15] 21 µM | [16] 31.9 µM

COc1ccc2c(c1)[n+]([O-])c(C(=O)C/C(=N/OCCCc1ccccc1)C(=O)NC13CC4CC(CC(C4)C1)C3)c(C)[n+]2[O-]
inactive: [1] > 100 µM | [2] > 100 µM | [3] > 100 µM | [4] > 100 µM | [5] > 100 µM | [6] > 100 µM | [7] > 100 µM | [8] 82.8 µM | [9] > 100 µM | [10] > 100 µM | [11] > 100 µM | [12] > 100 µM | [13] > 100 µM | [14] > 100 µM | [15] > 100 µM | [16] > 100 µM | [17] > 100 µM

O=C(CC1C(=O)Nc2ccccc2[S+]1[O-])Nc1cccc(Cl)c1 (configuration not stated)
inactive: [1] 25.1 µM | [18] 13.8 µM | [2] > 44.6 µM | [3] 44.3 µM | [4] > 44.9 µM | [5] > 100 µM | [7] > 43.1 µM | [8] 6.61 µM | [9] > 51.9 µM | [10] > 47.4 µM | [11] > 35.6 µM | [12] 32.7 µM | [13] > 100 µM | [14] > 37.5 µM | [15] 13.2 µM | [16] > 58.9 µM | [19] 32.5 µM | [17] 25.5 µM

O=C(CC1C(=O)c2ccccc2C1=C1C(=O)c2ccccc2C1=O)c1ccccc1 (configuration not stated)
inactive: [1] > 100 µM | [2] > 100 µM | [3] > 100 µM | [4] > 100 µM | [5] > 100 µM | [6] 19.9 µM | [7] > 100 µM | [8] 30.3 µM | [9] > 100 µM | [10] > 100 µM | [11] > 100 µM | [13] > 100 µM | [14] > 100 µM | [15] > 100 µM | [16] > 100 µM | [17] > 100 µM

N=C(N)/N=C(/C=C/c1ccccc1)CC1OC(=O)c2ccccc21 (configuration not stated)
inactive: [1] > 100 µM | [2] > 100 µM | [3] > 100 µM | [5] > 100 µM | [6] > 100 µM | [7] 42 µM | [8] > 100 µM | [9] > 100 µM | [10] > 100 µM | [11] > 100 µM | [13] > 100 µM | [14] > 100 µM | [15] > 100 µM | [17] > 100 µM

CCOC(=O)/C(=C/c1ccccc1)N(CC)CC
inactive: [1] > 100 µM | [2] > 100 µM | [3] > 100 µM | [4] > 100 µM | [5] > 100 µM | [6] > 100 µM | [7] > 100 µM | [8] > 100 µM | [9] > 100 µM | [10] > 100 µM | [11] > 100 µM | [12] > 100 µM | [13] > 100 µM | [14] > 100 µM | [15] > 100 µM | [16] > 100 µM | [17] > 100 µM

Nc1ccc2c(SCC(=O)Nc3ccccc3-c3ccccc3NC(=O)CSc3c4ccccc4nc4cc(N)ccc34)c3ccccc3nc2c1
inactive: [1] 20 µM | [18] 12.4 µM | [2] 29.2 µM | [3] 29.3 µM | [20] 22.2 µM | [4] 18 µM | [5] 19.9 µM | [6] 6.52 µM | [7] 18.9 µM | [8] 2.71 µM | [9] 28.5 µM | [10] 39.6 µM | [11] 29.6 µM | [12] 22.2 µM | [13] 41 µM | [14] 27 µM | [15] 29.9 µM | [16] 38 µM | [19] 24.2 µM | [17] 33.7 µM

COc1cc(CC2c3cc(OC)c(OC)cc3CCN2C)c(C(=O)O)cc1OC (configuration not stated)
inactive: [1] > 100 µM | [3] > 100 µM | [4] > 100 µM | [5] > 100 µM | [6] > 100 µM | [7] > 100 µM | [8] > 100 µM | [9] > 100 µM | [10] > 100 µM | [11] > 100 µM | [12] > 100 µM | [13] > 100 µM | [15] > 100 µM | [16] > 100 µM | [17] > 100 µM

Cc1cc(=O)oc2cc3c(cc12)Oc1ccccc1O3
inactive: [1] > 100 µM | [2] 51.9 µM | [3] > 100 µM | [4] 89.3 µM | [5] > 10 µM | [7] > 100 µM | [8] > 10 µM | [9] > 100 µM | [10] > 10 µM | [11] > 100 µM | [12] > 100 µM | [13] > 100 µM | [14] > 100 µM | [15] > 100 µM | [16] > 100 µM | [17] > 100 µM
